What all share (type): in vivo
Experiment [1] deals with vomiting response to apomorphine HCl. Kind of experiment: Anti-emetic activity in the dog (apomorphine HCl induced vomiting). Conditions: Canis lupus familiaris, sc, 30 min before apomorphine HCl 0.1 mg/kg s.c. The method, then:
I. Anti-emetic acitivity in the dog
Compounds were administered subcutaneously 30 minutes prior to administration of a standard dose of apomorphine HCl (0.1 mg/kg subcutaneously) and the vomiting response compared to that obtained when the same animals were dosed with apomorphine HCl and vehicle only.
(§1) The tests I and II shown above for anti-emetic and CNS activity respectively were used for the comparison testing of representative Compound 1 with 4-amino-5-chloro-2-methoxy-N-(3'β-[8'-benzyl]-8-azabicyclo[3.2.1]octyl)benzamide (A'). Compound A' was chosen because of the compounds specifically disclosed in European Patent Application No. 793029978 and U.S. Pat. No. 4,273,778 it has the best anti-emetic activity and is the structurally closest compound to compound 1. Other compounds of the Examples were also submitted to tests I and II.

The next experiment concerns Dopamine Receptor. Kind of experiment: Dopamine receptor blocking activity in the CNS: inhibition of apomorphine induced climbing in the mouse. The settings on record: s.c. (table footnote), apomorphine 1 mg/kg s.c. induced climbing.
Experiment [2] has as its system gastric motility inhibited by 6,7-ADTN. Kind of experiment: Gastric motility testing in the rat: reversal of the inhibitory effect of 6,7-ADTN. The settings on record: s.c., 10 minutes after 6,7-ADTN 1 mg/kg s.c.; conscious chronic gastric fistula rat. How it is done:
III. Gastric Motility Testing in the rat
The compounds were tested for ability to reverse the inhibitory effect of 6,7-ADTN on gastric motility as recorded by an open tipped catheter in the conscious chronic gastric fistula rat. Administration of 1 mg/kg s.c. of 6,7-ADTN reduced basal gastric motor activity and this was reversed by the administration of 0.008 mg/kg s.c. of compound 1. administered 10 minutes after the 6,7-ADTN. […] For subcutaneous testing the compound was dissolved in water by the addition of tartaric acid (1/2 mole per mole of compound).

A short description of experiment [3]: Therapeutic ratio for anti-emetic activity based upon CNS effects (tests I and II). The settings on record: relative to compound A'.
From the text: as §1

Regarding `COc1cc(N)c(S(C)(=O)=O)cc1C(=O)N[C@@H]1C[C@H]2CC[C@@H](C1)N2Cc1ccccc1` [Compound 1, 4-Amino-2-methoxy-5-methylsulphonyl-N-[3-β-(8-benzyl-8-azabicyclo[3.2.1]octyl)]benzamide], it took a dose of 0.002 mg/kg to reach the 50% effect level in experiment [1] (ED50). In addition, the “CNS activity (ED50)” value in the experiment on Dopamine Receptor came to 3.5 mg/kg. Besides, the “dose reversing the 6,7-ADTN inhibition of gastric motor activity” value in experiment [2] is given as 0.008 mg/kg. Also, the “improvement of therapeutic ratio for anti-emetic activity based upon CNS effects, compared with compound A'” value in experiment [3] was “more than 300 times”.

The compound `COc1cc(N)c(Cl)cc1C(=O)N[C@@H]1C[C@H]2CC[C@@H](C1)N2Cc1ccccc1` [Compound A', 4-amino-5-chloro-2-methoxy-N-(3'β-[8'-benzyl]-8-azabicyclo[3.2.1]octyl)benzamide, reference compound] displayed an ED50 in experiment [1] of 0.0005 mg/kg. Further, the “CNS activity (ED50)” value in the experiment on Dopamine Receptor is 0.0029 mg/kg.

`COc1cc(N)c(S(C)(=O)=O)cc1C(=O)N[C@@H]1C[C@H]2CC[C@@H](C1)N2C` [Compound 3, 4-Amino-2-methoxy-5-methylsulphonyl-N-[3β-(8-methyl-8-azabicyclo[3.2.1]octyl)]benzamide] came in with an ED50 in experiment [1] of 0.5 mg/kg. Also, in the experiment with Dopamine Receptor, the “CNS activity (ED50)” value was determined as 80 mg/kg.

The compound `CCS(=O)(=O)c1cc(C(=O)N[C@@H]2C[C@H]3CC[C@@H](C2)N3Cc2ccccc2)c(OC)cc1N` [Compound 2, 4-Amino-5-ethylsulphonyl-2-methoxy N-[3-β-(8-benzyl-8azabicyclo{3,2,1}octyl)]benzamide] returned an ED50 in experiment [1] of 0.01 mg/kg. Further, the “CNS activity (ED50)” value in the experiment with Dopamine Receptor turned out to be 3.5 mg/kg.
